Source: patent publication US20090203577A1 (EXELIXIS, INC., priority 2005, published 2009)
pEC50: −log10 of the molar value. Converted amounts (≈) assume the structure as drawn.

What was measured:
[1] = target: T1, human farnesoid X receptor (Homo sapiens, UniProt Q96RI1); assay: FXR in vitro assays (farnesoid X receptor/ECREx7 co-transfection assay, TR-FRET assay), Table I; assay type: cell-based; conditions: for pEC50: agonist activity, one or more of the in vitro assays, read-out: EC50; for Emax: read-out: % Efficacy
T1 construct: CMX-farnesoid X receptor (full length human farnesoid X receptor); expressed in transfected cells; host or cells: CV-1 African Green Monkey Kidney cells
T1 sequence (Q96RI1 1-472 isoform Q96RI1-2): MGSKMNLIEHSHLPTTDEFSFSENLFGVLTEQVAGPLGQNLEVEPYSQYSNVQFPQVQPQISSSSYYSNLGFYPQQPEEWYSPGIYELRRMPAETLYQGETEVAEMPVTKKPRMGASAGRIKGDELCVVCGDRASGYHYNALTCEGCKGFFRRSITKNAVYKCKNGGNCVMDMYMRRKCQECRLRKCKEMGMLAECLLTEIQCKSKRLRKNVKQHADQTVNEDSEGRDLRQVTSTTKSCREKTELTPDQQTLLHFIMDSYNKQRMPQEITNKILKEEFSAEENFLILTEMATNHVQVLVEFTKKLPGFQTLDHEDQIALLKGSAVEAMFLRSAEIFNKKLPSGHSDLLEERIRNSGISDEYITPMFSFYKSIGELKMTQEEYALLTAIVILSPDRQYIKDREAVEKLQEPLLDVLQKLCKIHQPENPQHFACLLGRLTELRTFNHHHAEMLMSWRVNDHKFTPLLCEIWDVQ
T1 sequence (P19793 1-462 partner): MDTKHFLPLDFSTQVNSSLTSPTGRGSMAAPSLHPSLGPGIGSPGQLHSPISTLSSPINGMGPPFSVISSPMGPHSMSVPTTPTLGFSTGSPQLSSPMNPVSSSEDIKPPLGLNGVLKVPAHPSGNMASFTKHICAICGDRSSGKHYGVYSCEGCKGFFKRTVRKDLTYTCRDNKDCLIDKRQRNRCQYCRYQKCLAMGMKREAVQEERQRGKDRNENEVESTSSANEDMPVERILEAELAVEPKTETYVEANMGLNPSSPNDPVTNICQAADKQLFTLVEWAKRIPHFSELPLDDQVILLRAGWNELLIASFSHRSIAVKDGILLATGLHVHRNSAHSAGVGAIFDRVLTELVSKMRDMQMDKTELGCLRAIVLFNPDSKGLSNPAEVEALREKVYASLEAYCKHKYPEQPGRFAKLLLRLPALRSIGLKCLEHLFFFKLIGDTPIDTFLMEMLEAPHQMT
Method in brief: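 CV-1 monkey kidney cells transfected for an FXR/ECREx7 luciferase co-transfection reporter; luciferase read 18-20 h later in lysates. 8-point dose-response at ½-log spacing, 4 wells per point; EC50/IC50 from four-parameter Hill fit, averaged over at least 3 independent experiments.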

physchem = conditions: for solubility kinetic at 1.5 h: pH 7.4, aqueous buffer, kinetic from dmso stock
Procedure: The kinetic solubility of test compounds in buffer was evaluated using a 96 well filtration plate format. A 500 μM assay solution in PBS, pH7.4 (or other assay buffer, as needed) was generated form a DMSO stock solution (up to 10 mM). Samples were transferred to a 96 Millipore MultiScreen HTS 96-well Filter plate (Cat# MSSLBPC10) mixed by shaking for 1.5 hours and processed by filtration prior to quantitation by HPLC-UV. Amiodarone and testosterone were used as reference controls.

In the case of CC(C)OC(=O)C1=CN(C(=O)N2CCC[C@H](CN(C)C)C2)CC(C)(C)c2c1[nH]c1ccccc21 [Example 51, 1-methylethyl 3-({(3R)-3-[(dimethylamino)methyl]piperidin-1-yl}carbonyl)-1,1-dimethyl-1,2,3,6-tetrahydroazepino[4,5-b]indole-5-carboxylate], the pEC50 [1] was 5.00 to 6.00, the Emax [1] was > 100% and the solubility kinetic at 1.5 h (physchem) was > 10 µM.
In the case of CC(C)OC(=O)C1=CN(C(=O)N2CCN(CC(=O)N3CCCC3)CC2)CC(C)(C)c2c1[nH]c1ccccc21 [Example 37, 1-methylethyl 1,1-dimethyl-3-{[4-(2-oxo-2-pyrrolidin-1-ylethyl)piperazin-1-yl]carbonyl}-1,2,3,6-tetrahydroazepino [4,5-b]indole-5-carboxylate], the pEC50 [1] was 6.00 to 7.00, the Emax [1] was > 100% and the solubility kinetic at 1.5 h (physchem) was > 10 µM.
For CC(C)CCC(=O)N1C=C(C(=O)OC(C)C)c2[nH]c3ccccc3c2C(C)(C)C1 [Example 34, 1-methylethyl 1,1-dimethyl-3-(4-methylpentanoyl)-1,2,3,6-tetrahydro azepino [4,5-b]indole-5-carboxylate], the pEC50 [1] was 7.00 to 8.00, the Emax [1] was > 100% and the solubility kinetic at 1.5 h (physchem) was > 10 µM.
For CC(C)OC(=O)C1=CN(C(=O)c2ccc(F)c(C(F)(F)F)c2)CC(C)(C)c2c1[nH]c1ccccc21 [Example 83, 1-methylethyl 3-{[4-fluoro-3-(trifluoromethyl)phenyl]car-bonyl}-1,1-dimethyl-1,2,3,6-tetrahydroazepino[4,5-b]indole-5-carboxylate], the pEC50 [1] was 7.00 to 8.00, the Emax [1] was > 100% and the solubility kinetic at 1.5 h (physchem) was 1 to 10 µM (≈ 0.488 to 4.88 µg/mL).
In the case of CC(C)OC(=O)C1=CN(C(=O)c2ccc(F)c(F)c2)CC(C)(C)c2c1[nH]c1cc(OC(=O)OC(C)(C)C)ccc21 [Example 96, 1-methylethyl 3-[(3,4-difluorophenyl)carbonyl]-8-({[(1,1-dimethylethyl)oxy]carbonyl}oxy)-1,1-dimethyl-1,2,3,6-tetrahydroazepino[4,5-b]indole-5-carboxylate], the pEC50 [1] was 7.00 to 8.00, the Emax [1] was > 100% and the solubility kinetic at 1.5 h (physchem) was 1 to 10 µM (≈ 0.555 to 5.55 µg/mL).
In the case of CC(C)OC(=O)C1=CN(C(=O)N2CCNCC2)CC(C)(C)c2c1[nH]c1ccccc21 [Example 26, 1-methylethyl 1,1-dimethyl-3-(piperazin-1-ylcarbonyl)-1,2,3,6-tetrahydroazepino [4,5-b]indole-5-carboxylate], the pEC50 [1] was 5.00 to 6.00, the Emax [1] was > 100% and the solubility kinetic at 1.5 h (physchem) was > 10 µM.
With CC(C)OC(=O)C1=CN(C(=O)c2cccc(Cl)c2)CC(C)(C)c2c1[nH]c1ccccc21 [Example 81, 1-methylethyl 3-[(3-chlorophenyl)carbonyl]-1,1-dimethyl-1,2,3,6-tetrahydroazepino[4,5-b]indole-5-carboxylate] the pEC50 [1] was 7.00 to 8.00, the Emax [1] was > 100% and the solubility kinetic at 1.5 h (physchem) was 1 to 10 µM (≈ 0.437 to 4.37 µg/mL).
With CC(C)OC(=O)C1=CN(C(=O)c2cc(C(F)(F)F)ccc2C(F)(F)F)CC(C)(C)c2c1[nH]c1ccccc21 [Example 137, 1-methylethyl 3-{[2,5-bis(trifluoromethyl)phenyl]carbonyl}-1,1-dimethyl-1,2,3,6-tetrahydroazepino[4,5-b]indole-5-carboxylate] the pEC50 [1] was 6.00 to 7.00, the Emax [1] was > 100% and the solubility kinetic at 1.5 h (physchem) was 0.1 to 1 µM (≈ 0.0538 to 0.538 µg/mL).
With CC(C)OC(=O)C1=CN(C(=O)N2CCC(N3CCCC3)CC2)CC(C)(C)c2c1[nH]c1ccccc21 [Example 28, 1-methylethyl 1,1-dimethyl-3[(4-pyrrolidin-1-ylpiperidin-1-yl)carbonyl]-1,2,3,6-tetrahydroazepino[4,5-b]indole-5-carboxylate] the pEC50 [1] was 5.00 to 6.00, the Emax [1] was 80 to 100% and the solubility kinetic at 1.5 h (physchem) was > 10 µM.
For CC(C)OC(=O)C1=CN(C(=O)N2CCCN(C)CC2)CC(C)(C)c2c1[nH]c1ccccc21 [Example 43, 1-methyl 1,1-dimethyl-3-[(4-methyl-1,4-diazepan-1-yl)carbonyl]-1,2,3,6-tetrahydroazepino[4,5-b]indole-5-carboxylate], the pEC50 [1] was 6.00 to 7.00, the Emax [1] was > 100% and the solubility kinetic at 1.5 h (physchem) was > 10 µM.
With CCN(CC)CCN1CCN(C(=O)N2C=C(C(=O)OC(C)C)c3[nH]c4ccccc4c3C(C)(C)C2)CC1 [Example 38, 1-methylethyl 3-({4-[2-(diethylamino)ethyl]piperazin-1-yl}carbonyl)-1,1-dimethyl-1,2,3,6-tetrahydroazepino[4,5-b]indole-5-carboxylate] the pEC50 [1] was 5.00 to 6.00, the Emax [1] was 60 to 80% and the solubility kinetic at 1.5 h (physchem) was > 10 µM.
In the case of CC(C)OC(=O)C1=CN(C(=O)NC2CCCCC2)CC(C)(C)c2c1[nH]c1ccccc21 [Example 45, 1-methylethyl 3-[(cyclohexylamino)carbonyl]-1,1-dimethyl-1,2,3,6-tetrahydroazepino[4,5-b]indole-5-carboxylate], the pEC50 [1] was 7.00 to 8.00, the Emax [1] was > 100% and the solubility kinetic at 1.5 h (physchem) was 1 to 10 µM (≈ 0.424 to 4.24 µg/mL).
With CC(C)OC(=O)C1=CN(C(=O)N2CCC(N3CCN(C)CC3)CC2)CC(C)(C)c2c1[nH]c1ccccc21 [Example 41, 1-methylethyl 1,1-dimethyl-3{[4-(4-methylpiperazin-1-yl)piperidin-1-yl]carbonyl}-1,2,3,6-tetrahydroazepino [4,5-b]indole-5-carboxylate] the pEC50 [1] was 5.00 to 6.00, the Emax [1] was 40 to 60% and the solubility kinetic at 1.5 h (physchem) was > 10 µM.
In the case of CCC(=O)N1C=C(C(=O)OC(C)C)c2[nH]c3ccccc3c2C(C)(C)C1 [Example 19], the pEC50 [1] was 6.00 to 7.00, the Emax [1] was > 100% and the solubility kinetic at 1.5 h (physchem) was > 10 µM.
For Cc1cccc(C(=O)N2C=C(C(=O)OC(C)C)c3[nH]c4ccccc4c3C(C)(C)C2)c1 [Example 86, 1-methylethyl 1,1-dimethyl-3-[(3-methylphenyl)carbonyl]-1,2,3,6-tetrahydroazepino[4,5-b]indole-5-carboxylate], the pEC50 [1] was 8.00 to 9.00, the Emax [1] was > 100% and the solubility kinetic at 1.5 h (physchem) was 1 to 10 µM (≈ 0.417 to 4.17 µg/mL).
With “1-methyethyl 1,1-dimethyl- 3-({4-[4-(trifluoromethyl)- 1H-pyrazol-1- yl]phenyl}carbonyl)-1,2,3,6- tetrahydroazepino[4,5- b]indole-5-carboxylate [Example 158]” the “% Efficacy” value [1] was “A (key: A=>100%; B=80-100%; C=60-80%; D=40-60%; E=<40%)” and the “Kinetic Solubility μM” value (physchem; 500 μM assay solution in PBS, pH7.4 from DMSO stock, filtration, HPLC-UV) was “C (C=0.1-1.0 μM)”.
For CC(C)OC(=O)C1=CN(C(=O)N[C@H]2CCCNC2)CC(C)(C)c2c1[nH]c1ccccc21 [Example 54, 1-mcthylethyl 1,1-dimethyl-3-{[(3S)-piperidin-3-ylamino]carbonyl}-1,2,3,6-tetrahydroazepino[4,5-b]indole-5-carboxylate], the pEC50 [1] was 5.00 to 6.00, the Emax [1] was 40 to 60% and the solubility kinetic at 1.5 h (physchem) was > 10 µM.
For CC(C)OC(=O)C1=CN(C(=O)c2ccc(C(F)(F)F)c(Cl)c2F)CC(C)(C)c2c1[nH]c1ccccc21 [Example 132, 1-methylethyl 3-{[3-chloro-2-fluoro-4-(trifluoromethyl)phenyl]car-bonyl}-1,1-dimethyl-1,2,3,6-tetrahydroazepino[4,5-b]indole-5-carboxylate], the pEC50 [1] was 6.00 to 7.00, the Emax [1] was > 100% and the solubility kinetic at 1.5 h (physchem) was 1 to 10 µM (≈ 0.523 to 5.23 µg/mL).
In the case of CC(C)OC(=O)C1=CN(C(=O)c2ccc(Cl)cc2)CC(C)(C)c2c1[nH]c1ccccc21 [Example 82, 1-methylethyl 3[(4-chlorophenyl)carbonyl]-1,1-dimethyl-1,2,3,6-tetrahydroazepino[4,5-b]indole-5-carboxylate], the pEC50 [1] was 7.00 to 8.00, the Emax [1] was > 100% and the solubility kinetic at 1.5 h (physchem) was 1 to 10 µM (≈ 0.437 to 4.37 µg/mL).
In the case of CC(C)OC(=O)C1=CN(C(=O)N2CCC[C@H](CN3CCCCC3)C2)CC(C)(C)c2c1[nH]c1ccccc21 [Example 58], the pEC50 [1] was 5.00 to 6.00, the Emax [1] was 80 to 100% and the solubility kinetic at 1.5 h (physchem) was > 10 µM.
For CC(C)OC(=O)C1=CN(C(=O)N2CCN(C)CC2)CC(C)(C)c2c1[nH]c1ccccc21 [Example 16], the pEC50 [1] was 6.00 to 7.00, the Emax [1] was > 100% and the solubility kinetic at 1.5 h (physchem) was 0.1 to 1 µM (≈ 0.0425 to 0.425 µg/mL).
For CC(C)OC(=O)C1=CN(C(=O)N2CCC[C@@H](N3CCCCC3)C2)CC(C)(C)c2c1[nH]c1ccccc21 [Example 60, 1-methylethyl 3-[(3′R)-1,3′-bipiperidin-1′-ylcarbonyl]-1,1-dimethyl-1,2,3,6-tetrahydroazepino[4,5-b]indole-5-carboxylate], the pEC50 [1] was 5.00 to 6.00, the Emax [1] was 60 to 80% and the solubility kinetic at 1.5 h (physchem) was > 10 µM.
